Results published in patent publication US11319309B2, “Cyclohexyl acid isoxazole azines as LPA antagonists” (BRISTOL-MYERS SQUIBB COMPANY, priority 2017, dated 2022).

test system: pancreatic cancer cell lines; test: not given; conditions: highly peritoneal metastatic pancreatic cancer cell line (Yamada et al. 2004); cited from earlier work

SMILES	LPA-induced and ascites-induced invasion activity
Cc1noc(-c2ccc(CSCCC(=O)O)cc2)c1NC(=O)OC(C)c1ccccc1Cl (stereo not shown) [Ki16425]	blocked

same assay, conditions: pancreatic cancer cell lines (Yamada et al. 2004); cited from earlier work

SMILES	in vitro migration in response to LPA and peritoneal fluid (ascites)
Cc1noc(-c2ccc(CSCCC(=O)O)cc2)c1NC(=O)OC(C)c1ccccc1Cl (stereo not shown) [Ki16425]	effectively blocked

test system: IPF patients; test: not given; conditions: 26-week clinical trial, IPF patients (Palmer et al., Chest 2018); cited from earlier work

SMILES	rate of FVC (forced vital capacity) decline
Cc1noc(-c2ccc(-c3ccc(C4(C(=O)O)CC4)cc3)cc2)c1NC(=O)O[C@H](C)c1ccccc1 [BMS-986020]	significantly reduce

test system: mouse epithelial renal cell line, MCT; test: not given; conditions: MCT cells, co-treatment with LPA; cited from earlier work

SMILES	induction of CTGF expression by LPA
Cc1noc(-c2ccc(CSCCC(=O)O)cc2)c1NC(=O)OC(C)c1ccccc1Cl (stereo not shown) [Ki16425]	almost completely suppressed

test system: human foetal lung fibroblasts; test: not given; conditions: induced by BAL obtained from IPF patients (Tager et al. 2008); cited from earlier work

SMILES	chemotaxis of human foetal lung fibroblasts
Cc1noc(-c2ccc(CSCCC(=O)O)cc2)c1NC(=O)OC(C)c1ccccc1Cl (stereo not shown) [Ki16425]	blocked

test system: nerve-injured mice; test: not given; conditions: pretreatment, nerve-injured mice (Inoue et al. 2004); cited from earlier work

SMILES	allodynia and hyperalgesia
C[C@@H](N)[C@H]1CC[C@H](C(=O)Nc2ccncc2)CC1 [Example Y-27632]	completely abolished

test system: UUO mice; test: not given; conditions: UUO mice treated with antagonist, compared with LPA1 (-/-) mice; cited from earlier work

SMILES	development of renal fibrosis
Cc1noc(-c2ccc(CSCCC(=O)O)cc2)c1NC(=O)OC(C)c1ccccc1Cl (stereo not shown) [Ki16425]	closely resembled the profile of LPA1 (−/−) mice

molecular target: T1, human LPA1 (Homo sapiens, UniProt Q92633); test: LPA1 functional antagonist assay (calcium flux); format: cell-based; conditions: CHO cells overexpressing human LPA1; inhibition of calcium flux induced by 10 nM LPA; read-out: hLPA1 IC50
T1 construct: expressed in transfected cells; host or cells: Chinese hamster ovary (CHO) cells
T1 sequence (Q92633 whole entry): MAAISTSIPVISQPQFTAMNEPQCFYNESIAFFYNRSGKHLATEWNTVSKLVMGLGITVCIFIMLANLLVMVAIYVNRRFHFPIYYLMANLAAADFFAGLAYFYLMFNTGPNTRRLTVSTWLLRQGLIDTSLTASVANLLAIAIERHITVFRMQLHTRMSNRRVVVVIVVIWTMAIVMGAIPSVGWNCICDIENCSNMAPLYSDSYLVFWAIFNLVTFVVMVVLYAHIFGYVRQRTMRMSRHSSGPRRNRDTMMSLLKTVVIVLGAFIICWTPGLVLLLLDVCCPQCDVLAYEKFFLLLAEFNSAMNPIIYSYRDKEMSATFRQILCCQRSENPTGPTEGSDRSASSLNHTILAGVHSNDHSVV
Procedure: The effectiveness of compounds of the present invention as LPA1 inhibitors can be determined in an LPA1 functional antagonist assay as follows:
Chinese hamster ovary cells overexpressing human LPA1 were plated overnight (15,000 cells/well) in poly-D-lysine coated 384-well microplates (Greiner bio-one, Cat #781946) in DMEM/F12 medium (Gibco, Cat #11039). Following overnight culture, cells were loaded with calcium indicator dye (AAT Bioquest Inc, Cat #34601) for 30 minutes at 37° C. The cells were then equilibrated to room temperature for 30 minutes before the assay. Test compounds solubilized in DMSO were transferred to 384 well non-binding surface plates (Corning, Cat #3575) using the Labcyte Echo acoustic dispense and diluted with assay buffer [1X HBSS with calcium/magnesium (Gibco Cat #14025-092), 20 mM HEPES (Gibco Cat #15630-080) and 0.1% fatty acid free BSA (Sigma Cat # A9205)] to a final concentration of 0.5% DMSO. Diluted compounds were added to the cells by FDSS6000 (Hamamatsu) at final concentrations ranging from 0.08 nM to 5 μM. and were then incubated for 20 min at room temperature at which time LPA (Avanti Polar Lipids Cat #857130C) was added at final concentrations of 10 nM to stimulate the cells. The compound IC50 value was defined as the concentration of test compound which inhibited 50% of the calcium flux induced by LPA alone. IC50 values were determined by fitting data to a 4-parameter logistic equation (GraphPad Prism, San Diego Calif.).

SMILES	IC50
Cc1noc(-c2ccc(O[C@H]3CCC[C@](F)(C(=O)O)C3)cn2)c1CNc1nccc(-c2ccccc2)n1 [Example 6]	7.8 nM
Cc1noc(-c2ccc(O[C@H]3CCC[C@H](C(=O)O)C3)cn2)c1CNc1ncnc(C2CC2)n1 [Example 25]	29 nM
Cc1noc(-c2ccc(O[C@@H]3CCC[C@H](C(=O)O)C3)cc2)c1COc1nccc(-c2ccccc2)n1 (racemic) [Example 29, (±)-Cis-3-(4-(3-Methyl-4-(((4-phenylpyrimidin-2-yl)oxy)methyl)isoxazol-5-yl)phenoxy)cyclo-hexanecarboxylic Acid]	209 nM
CCOc1ccnc(NCc2c(C)noc2-c2ccc(O[C@H]3CCC[C@H](C(=O)O)C3)cn2)n1 [Example 23]	14 nM
Cc1nc(-c2onc(C)c2CNc2ncnc(C3CCC3)n2)ccc1O[C@H]1CCC[C@H](C(=O)O)C1 [Example 20]	64 nM
Cc1nc(-c2onc(C)c2CNc2nccc(-c3ccccn3)n2)ccc1O[C@H]1CCC[C@H](C(=O)O)C1 [Example 14]	64 nM
Cc1nc(-c2onc(C)c2CNc2ncnc(C3CC3)n2)ccc1O[C@H]1CCC[C@H](C(=O)O)C1 [Example 19]	76 nM
Cc1noc(-c2ccc(O[C@H]3CCC[C@H](C(=O)O)C3)cn2)c1CNc1nccc(-c2ccccc2)n1 [Example 1, (1S,3S)-3-((6-(3-methyl-4-(((4-phenylpyrimidin-2-yl)amino)methyl)isoxazol-5-yl)pyridin-3-yl)oxy) cyclohexane-1-carboxylic Acid]	14 nM
Cc1noc(-c2ccc(O[C@H]3CCC[C@H](C(=O)O)C3)cn2)c1CNc1nccc(Oc2ccccc2)n1 [Example 7]	6 nM
Cc1nc(-c2onc(C)c2CNc2ncc(F)c(NC(C)C)n2)ccc1O[C@H]1CCC[C@H](C(=O)O)C1 [Example 18]	88 nM
Cc1noc(-c2ccc(O[C@H]3CCC[C@H](C(=O)O)C3)cn2)c1CNc1ncnc(C2CCC2)n1 [Example 27]	33 nM
Cc1nc(-c2onc(C)c2CNc2ncnc(C3CCCC3)n2)ccc1O[C@H]1CCC[C@H](C(=O)O)C1 [Example 21]	60 nM
Cc1cc(OC(C)C)nc(NCc2c(C)noc2-c2ccc(O[C@H]3CCC[C@H](C(=O)O)C3)cn2)n1 [Example 11]	17 nM
CCOc1ccnc(NCc2c(C)noc2-c2ccc(O[C@H]3CCC[C@H](C(=O)O)C3)c(C)n2)n1 [Example 17, (1S,3S)-3-((6-(4-(((4-Ethoxypyrimidin-2-yl)amino)methyl)-3-methylisoxazol-5-yl)-2-methylpyridin-3-yl)oxy)cyclohexane-1-carboxylic Acid]	26 nM
Cc1noc(-c2ccc(O[C@H]3CCC[C@H](C(=O)O)C3)cn2)c1CNc1nccc(-c2ccccc2)n1 [Example 3]	18 nM
Cc1cc(Oc2ccccc2)nc(NCc2c(C)noc2-c2ccc(O[C@H]3CCC[C@H](C(=O)O)C3)cn2)n1 [Example 9]	20 nM
Cc1noc(-c2ccc(O[C@H]3CCC[C@H](C(=O)O)C3)cn2)c1CNc1nccc(C2CC2)n1 [Example 10]	18 nM
Cc1noc(-c2ccc(O[C@H]3CCC[C@H](C(=O)O)C3)cn2)c1CNc1nccc(-c2ccccn2)n1 [Example 13]	32 nM
Cc1cnc(NCc2c(C)noc2-c2ccc(O[C@H]3CCC[C@H](C(=O)O)C3)cn2)nc1-c1ccccc1 [Example 15]	4.9 nM
Cc1noc(-c2ccc(O[C@H]3CCC[C@@H](C(=O)O)C3)cn2)c1CNc1nccc(-c2ccccc2)n1 [Example 4]	39 nM
Cc1noc(-c2ccc(O[C@H]3CCC[C@@H](C(=O)O)C3)cn2)c1CNc1nccc(-c2ccccc2)n1 [Example 16]	14 nM
Cc1noc(-c2ccc(O[C@H]3CCC[C@H](C(=O)O)C3)cn2)c1CNc1ncnc(C(C)C)n1 [Example 26]	38 nM
Cc1cc(N2CCCCC2)nc(NCc2c(C)noc2-c2ccc(O[C@H]3CCC[C@H](C(=O)O)C3)cn2)n1 [Example 12]	1100 nM
Cc1noc(-c2ccc(O[C@H]3CCC[C@H](C(=O)O)C3)cn2)c1CNc1ncc(F)c(NC(C)C)n1 [Example 24]	32 nM
Cc1noc(-c2ccc(O[C@@H]3CCC[C@@H](C(=O)O)C3)cc2)c1COc1nccc(-c2ccccc2)n1 (racemic) [Example 30, (±)-Trans-3-(4-(3-methyl-4-(((4-phenylpyrimidin-2-yl)oxy)methyl)isoxazol-5-yl)phenoxy)cyclohexanecarboxylic Acid]	47 nM
Cc1noc(-c2ccc(O[C@H]3CCC[C@H](C(=O)O)C3)cn2)c1CNc1ncnc(C2CCCC2)n1 [Example 28]	24 nM
Cc1noc(-c2ccc(O[C@H]3CCC[C@H](C(=O)O)C3)cn2)c1CNc1cc(-c2ccccc2)ccn1 [Example 5]	21 nM
Cc1noc(-c2ccc(O[C@@H]3CCC[C@@H](C(=O)O)C3)cc2)c1CNc1nccc(-c2ccccc2)n1 [Example 22]	47 nM
Cc1nc(-c2onc(C)c2CNc2ncnc(C(C)C)n2)ccc1O[C@H]1CCC[C@H](C(=O)O)C1 [Example 2, (1 S,3 S)-3-((6-(4-(((4-isopropyl-1,3,5-triazin-2-yl)amino)methyl)-3-methylisoxazol-5-yl)-2-methylpyridin-3-yl)oxy)cyclohexane-1-carboxylic Acid]	43 nM
Cc1cc(-c2ccccc2)nc(NCc2c(C)noc2-c2ccc(O[C@H]3CCC[C@H](C(=O)O)C3)cn2)n1 [Example 8]	16 nM
